Measured values as given in a melting point compilation (Tetko et al.; mined from patent text by program, amines drawn as free bases though some values may be those of a salt).
Residues, ends and D or L forms follow the SMILES beside them. *: point of attachment. Cbz = O=C(OCc1ccccc1)*

First: COc1cc(C(=O)N(C(C)C)C(C)C)ccc1OCCCCOc1ccc(C(N)=NO)cc1
Second: COC(=O)[C@H](Cc1ccc(OS(=O)(=O)c2ccc(C)cc2)cc1)NC(=O)OC(C)(C)C
The melting point of the first is lower: 63 to 65 °C for the first, 78.8 to 79.5 °C for the second.

First: CSc1ccccc1CNC(=O)c1ccc2cnccc2n1
Second: COc1ccc(C(=O)c2c[nH]c(Cc3ccccc3)n2)cc1
The melting point of the first is lower: 102 to 103 °C for the first, 108 to 110 °C for the second.

Compared with `COC=C(C(=O)OC)n1ccc2ccc(-c3nccc(-c4ccccc4)n3)cc21`, `COc1ccc2nc(-c3ccc(C)c(C)c3)n(-c3ccccc3)c2c1` is higher in melting point: 85 °C for the first, 251 °C for the second.

First: COCCc1nc2c(N)nc3c(c2n1CCCCNS(=O)(=O)c1ccc(F)cc1)CCCC3
Second: CC(C)C(NS(=O)(=O)c1ccc2c3c(oc2c1)CCCC3)C(=O)O (centres undefined)
The melting point of the first is higher: 191 to 193 °C for the first, 167 to 169 °C for the second.

First: O=C(NCc1ccc(Cl)cc1)c1cnc2c(I)cc(CN3CCOCC3)cc2c1O
Second: Cc1ccc(Cn2nc(CNC(=O)NC(C)(C)C)cc2-c2ccc(Cl)c(Cl)c2)cc1Cl
The melting point of the first is higher: 230 to 233 °C for the first, 181 °C for the second.

`Cn1c(=O)nc(Sc2ccccc2)sc1=S` and `CC(C)(C)OC(=O)N1C[C@@H](Sc2ccccc2)C[C@H]1C(=O)O` cannot be ordered by melting point: 116 to 118 °C for the first, 110 to 118 °C for the second.

First: Cc1ccccc1/C=C/c1c(C(C)C)nc(C(C)C)c(CO)c1-c1ccc(F)cc1
Second: CCCCc1c(CO)nc2ccccc2c1OCc1ccc(-c2ccccc2C(=O)O)cc1
The melting point of the first is lower: 108 to 111 °C for the first, 174 °C for the second.

Compared with `CC(C)c1ccc(C(=O)NC(C)c2ccc(Br)s2)cc1` (centres undefined), `CC(C)c1ccc(NC=CS(=O)(=O)F)cc1` is lower in melting point: 108 °C for the first, 41 to 43 °C for the second.

First: COC(=O)c1csc(C)c1N
Second: COc1cc(C)c([N+](=O)[O-])c(C)c1
The melting point of the first is higher: 78 °C for the first, 50 to 52 °C for the second.

First: CCCS(=O)(=O)N1CCC(c2nc3cc(-c4ccc(C(N)=O)c(F)c4)ccc3o2)CC1
Second: CN(C)CCNS(=O)(=O)c1cc(NC(=O)c2cnn3c(C(F)(F)F)cc(-c4ccc(C(F)(F)F)cc4)nc23)c(Cl)s1
The melting point of the first is higher: 222 to 225 °C for the first, 198 °C for the second.

First: COC(=O)CCCC(=O)N(CCc1c[nH]c2ccccc12)CC1CC1
Second: CNC(=O)C(=O)CCCCCCc1cnc(-c2ccc(Br)cc2)o1
The melting point of the first is higher: 99 to 100 °C for the first, 90 to 92 °C for the second.

First: O=c1c2c(CCCc3ccccc3)n[nH]c2c2cccnc2n1-c1ccccc1
Second: c1ccc(CN2CCN(Cc3nc4ccccc4[nH]3)CC2)cc1
The melting point of the first is higher: 202 to 204 °C for the first, 195 to 201 °C for the second.

First: COC(=O)C1=Cc2cc(Br)ccc2N2CCCC2C1 (centres undefined)
Second: COc1cccc(N2CCC(C(N)=O)CC2)c1
The melting point of the first is lower: 136 to 139 °C for the first, 153 to 156 °C for the second.

First: CCCCCCCCCCCCCCCC(=O)OCC(COC(=O)CCCCCCCCCCCCCCC)OCn1cnc2c(=O)[nH]c(N)nc21
Second: CCCCCNC(=O)Nc1ccccc1C(=O)NCCC1CCN(C(c2ccccc2)c2ccccc2)CC1
The melting point of the first is higher: 150 to 154 °C for the first, 124 to 127 °C for the second.

First: CC(N)CNC(=O)Nc1ccccc1 (centres undefined)
Second: C[C@H](NC(=O)OCc1ccccc1)C(=O)N1CCC[C@H]1C(=O)O (Cbz-Ala-Pro-OH)
The melting point of the first is lower: 118 to 120 °C for the first, 124 to 125 °C for the second.

Compared with `CCCSc1nc(Sc2ccc(OC)cc2)c(C(=O)O)n1Cc1cc2c(cc1Cl)OCO2`, `CCCC1=C(C#N)C(c2ccccc2Cl)c2cn(C(=O)Nc3ccccc3)nc2N1` (centres undefined) is higher in melting point: 164 °C for the first, 167 to 171 °C for the second.

First: O=C1c2ccc(S(=O)(=O)c3ccccc3)cc2C(=O)c2c1c(Oc1ccccc1)c1ccccc1c2Oc1ccccc1
Second: O=C(O)c1cccc(S(=O)(=O)Cc2c(O[C@H](Cn3ccnc3)c3ccccc3)ccc3c2CCCC3=O)c1
The melting point of the first is higher: 260 to 270 °C for the first, 236 to 238 °C for the second.

Compared with `CCCSc1nc(N)c2ncn(C3C=CCCC3)c2n1` (centres undefined), `CC(C)(C)NC(=O)c1nn(-c2ccc([N+](=O)[O-])cc2)c2c1C1CCC2C1` (centres undefined) is higher in melting point: 108 to 113 °C for the first, 224 to 226 °C for the second.

First: Nc1ccc(Cl)cc1S
Second: O=c1cc2c(nn1-c1ccc(Cl)cc1)-c1cc(Cl)ccc1SCC2
The melting point of the first is lower: 70 to 72 °C for the first, 215 to 217 °C for the second.

Compared with `CNC(=O)C1Cc2c(nc(C)n2C)C2=C1C(=O)CC1(Cc3ccccc3C1)N2` (centres undefined), `Cc1nn(-c2cc(OC(C)C(=O)NS(=O)(=O)c3cccc4c3OC(C)(C)C4)c(Cl)cc2F)c(=O)n1C(F)F` (centres undefined) is higher in melting point: 93 to 94 °C for the first, 198 to 201 °C for the second.

Compared with `CCN1C(=O)Cc2cc(Cl)cnc21`, `CCC(=O)c1ccc(=O)[nH]c1C=CN(C)C` is higher in melting point: 78 to 82 °C for the first, 204 to 206 °C for the second.

Compared with `N#Cc1nc(Cl)c(-c2c(F)cc(F)cc2F)c(N2CCCO2)n1`, `CCOC(=O)C(=CNc1ccc(F)cc1F)C(=O)c1c(F)cc(Cl)c(F)c1Cl` is lower in melting point: 107 to 113 °C for the first, 84 to 86 °C for the second.

First: Cc1ccc(O[C@@H](Cc2ccc(O)cc2)C(=O)N2C(=O)OC[C@@H]2Cc2ccccc2)cc1
Second: CC(=O)Oc1cccc2c1C(=O)C(CN1CCC(O)(c3ccccc3)CC1)CC2 (centres undefined)
The melting point of the first is lower: 135 to 136 °C for the first, 170 to 172 °C for the second.

First: Cc1cc(NC(=O)c2c(Cl)cccc2Cl)c2nccc(-n3ccnc3)c2c1
Second: C[C@@H](NC(=O)c1nc(-c2ccc(Cl)cc2)ns1)[C@](O)(Cn1cncn1)c1ccc(F)cc1F
The melting point of the first is higher: 260 to 261 °C for the first, 215 to 220 °C for the second.

First: C[Si](C)(C)C#Cc1ccc(C=CC2=CC(c3ccc(C#C[Si](C)(C)C)cc3)N(c3ccccc3)N2)cc1 (centres undefined)
Second: Oc1ccc(-c2ncc3ncc(-c4ccco4)cc3n2)cc1
The melting point of the first is lower: 128 to 130 °C for the first, 261 to 263 °C for the second.

Compared with `COC(=O)C(C)(C)c1ccc(C(=O)Nc2cn3cc(-c4cn[nH]c4)ccc3n2)cc1`, `Cc1ccc(-c2ccc(NC(=O)OC(C)(C)C)c([N+](=O)[O-])c2)cc1` is lower in melting point: 248 to 249 °C for the first, 105 to 108 °C for the second.

Compared with `COc1ccc(F)cc1C(C)(C)CC(O)(CN1CC(=O)Nc2ccccc21)C(F)(F)F` (centres undefined), `CN(C(=O)c1cnc(N2CC(C)(C)NC2=O)nc1N)c1cccc(C(F)(F)F)c1` is higher in melting point: 69 to 71 °C for the first, 210 to 211 °C for the second.

First: CNC(=C[N+](=O)[O-])NCCSCc1csc(CN2CCCCC2)n1
Second: CC(C)(C)OC(=O)NCC1CCN(CC2(C(=O)O)CCC2)CC1
The melting point of the first is lower: 100 to 103 °C for the first, 160 °C for the second.

Compared with `COc1cc(OC2CCN(C(=O)Cc3c[nH]cn3)CC2)ccc1CC(=O)N1CCN(c2ccccc2C)CC1C(N)=O` (centres undefined), `COc1cc(OC)c2c(=O)[nH]c(-c3cc(C)c(OCCN(C)C)c(C)c3)cc2c1` is higher in melting point: 120 to 124 °C for the first, 261 to 263 °C for the second.

First: CCCC1=C([N+](=O)[O-])C(c2ccccc2[N+](=O)[O-])c2c[nH]nc2N1 (centres undefined)
Second: CCNC(=S)NC1CCC(=O)c2ccccc21 (centres undefined)
The melting point of the first is higher: 204 °C for the first, 134 to 138 °C for the second.

Compared with `ClCc1ccc(-c2nc3cccc(Cl)c3o2)cc1`, `O=S(=O)(NC1Cc2ccc(CCO)cc2C1)c1ccc(Cl)cc1` (centres undefined) is lower in melting point: 92 to 93 °C for the first, 71 to 76 °C for the second.

Compared with `CSC1NC(=O)N(c2ccc(C)cc2)C(=O)N1`, `Cc1cc2cc(C3CCNCC3)oc2cc1C` is lower in melting point: 276 to 278 °C for the first, 77 to 78 °C for the second.

First: SCC1SC(CS)SC(CS)S1 (centres undefined)
Second: COCCc1sc(C(O)(c2nc(C)c(CCOC)s2)C(F)(F)F)nc1C
The melting point of the first is lower: 42 to 46 °C for the first, 68 to 69 °C for the second.

First: O=C(Nc1cc(S(=O)(=O)N(CCO)CCO)sc1Cl)c1cnn2c(C(F)(F)F)cc(-c3ccc(C(F)(F)F)cc3)nc12
Second: O=c1n(-c2ccc(OCC(F)(F)C(F)F)cc2)cnn1-c1ccc([N+](=O)[O-])cc1
The melting point of the first is higher: 217 °C for the first, 161 to 162 °C for the second.

For `O=C(O)/C=C/C=C(c1cccc(F)c1)c1cccc(F)c1`, the melting point was 142 to 143 °C.
